Source: ChEMBL document CHEMBL1137802, “Specific antioxidant activity of caffeoyl derivatives and other natural phenolic compounds: LDL protection against oxidation and decrease in the proinflammatory lysophosphatidylcholine production” (J Nat Prod, 2001)
Active and inactive are the calls of the source. The rule behind the calls is not given here.

Assays:
Format in all cases: functional, cell-free
[1] = Antioxidant activity against Cu2+-induced lipid peroxidation in human plasma LDL preincubated for 1 hr before Cu2+ challenge
[2] = Antioxidant activity against Cu2+-induced lipid peroxidation in human plasma LDL at 0.01 to 0.1 umol/L preincubated for 1 hr before Cu2+ challenge
[3] = Antioxidant activity against AAPH-induced lipid peroxidation in human plasma LDL at 0.01 to 0.1 umol/L preincubated for 1 hr before AAPH challenge
[4] = Antioxidant activity against AAPH-induced lipid peroxidation in human plasma LDL preincubated for 1 hr before AAPH challenge
[5] = Antioxidant activity against AAPH-induced lipid peroxidation in human plasma LDL at 1 umol/L preincubated for 1 hr before AAPH challenge
[6] = Antioxidant activity against AAPH-induced lipid peroxidation in human plasma LDL at 0.2 umol/L preincubated for 1 hr before AAPH challenge

## COc1cc(/C=C/C(=O)O)ccc1O
[1]
  Activity: 8.5 µM/L

## CC(=O)Oc1ccccc1C(=O)O
[1]
  Activity: inactive

## O=C(O)/C=C/c1ccc(O)cc1
[1]
  Activity: 0.6 µM/L

## O=C(O)c1ccc(O)c(O)c1
[2]
  Activity: Active
[3]
  Activity: Active

## O=C(/C=C/c1ccc(O)c(O)c1)O[C@@H]1C[C@](O)(C(=O)O)C[C@@H](O)[C@H]1O
[4]
  Activity: 55.3 µM/L
[1]
  Activity: 156 µM/L

## O=C(/C=C/c1ccc(O)c(O)c1)OC(C(=O)O)C(O)C(=O)O (stereo unspecified)
[1]
  Activity: 125 µM/L

## Oc1cc(O)c2c(c1)OC(c1ccc(O)c(O)c1)C(O)C2 (stereo unspecified)
[4]
  Activity: 156 µM/L
[1]
  Activity: 34.6 µM/L

## O=C(O)c1cc(O)c(O)c(O)c1
[5]
  Activity: 30 µM/L
[2]
  Activity: Active
[3]
  Activity: Active
[6]
  Activity: 90 µM/L

## COc1cc(/C=C/C(=O)O)cc(OC)c1O
[1]
  Activity: 47.4 µM/L

## VITAMIN E
[1]
  Activity: 7.2 µM/L

## Oc1cc(O)c2c(c1)O[C@H](c1ccc(O)c(O)c1)[C@H](O)C2
[1]
  Activity: 37.1 µmol/L

## O=C(O)/C=C/c1ccc(O)c(O)c1
[4]
  Activity: 73.6 µM/L
[1]
  Activity: 54 µM/L

## O=C(O)c1ccccc1O
[1]
  Activity: inactive

## O=C(/C=C/c1ccc(O)c(O)c1)O[C@H](Cc1ccc(O)c(O)c1)C(=O)O
[1]
  Activity: 150 µM/L
